Five molecules from patent publication US20050250726A1, “Immunostimulatory nucleic acid for treatment of non-allergic inflammatory diseases” (University of Iowa Research Foundation, priority 2001, published 2005) can be followed below.

Strand notation (5' to 3'): a small letter for the sugar, then the base; units joined by * are phosphorothioate-linked, units joined directly phosphodiester-linked; [ ] holds rarer units or linkages, { } end groups; capitals alone tell only the bases. d = 2'-deoxy (DNA)

The subject of data set [1] is BALB/c mouse spleen cells. In words: IFN-γ secretion from CpG DNA-stimulated spleen cells (ELISA). In kind it is cell-based. To be noted: for IFN-γ: BALB/c spleen cells preincubated 30 min with SC-58236 0.125 μM, PGE2 0.1 μM, 2B5 or control antibody 6.7 μg/mL, then CpG ODN 1826 0.3 μg/mL for 24 h, supernatant ELISA. The protocol:
Cell culture conditions. RAW 264.7 cells and murine spleen cells were cultured in RPMI 1640 supplemented with 10% FCS, 2 mM L-glutamine, 0.05 mM 2-mercaptoethanol, penicillin (100 U/ml) and streptomycin (100 U/ml) in 12-well tissue culture plates (Costar, Corning, N.Y.). Cells were incubated in media alone or media supplemented with ODN. Supernatants from triplicate cultures were harvested and stored at −70° C. before analysis for PG or cytokine concentration. Cells were subsequently harvested for either RNA or protein isolation. In some cultures, ODN-stimulated spleen cells were incubated in the presence of PGE2 (0.1 μM), piroxicam (16 μM), SC-58236 (0.125 μM), anti-PGE2 antibody 2B5 (6.7 μg/ml), or isotype antibody MOPC21 (6.7 μg/ml). For quantitative analysis of macrophage PG production, RAW 264.4 cells were cultured at 1×10^5 cells/ml in media or media with ODN (3 μg/ml). After 24 h of culture the supernatant was removed and cells were incubated in PBS supplemented with arachidonic acid (10 μM).
Cytokine quantification. IFN-γ detection was performed using a cytokine ELISA kit from PharMingen (San Diego, Calif.). Immulon-1B microtiter plates were obtained from Dynatech (Chantilly, Calif.). After incubation with peroxidase substrate (tetramethylbenzidine) the plates were read at 650 nm on a microplate reader (Cambridge Technology, Watertown, Mass.).
COX inhibitors enhance IFN-γ secretion induced by CpG DNA. CpG DNA is known to elicit strong Th1-like immune responses both in vitro and in vivo. Klinman D M et al. (1996) Proc Natl Acad Sci USA 93:2879-83. In contrast, PGE2, which is induced by CpG DNA, can inhibit Th1 responses. Betz M et al. (1991) J Immunol 146:108-13. Murine spleen cells were stimulated with CpG DNA in the presence of piroxicam, a non-selective COX inhibitor, or SC-58236, a selective inhibitor of COX-2, and quantified IFN-γ production. […] Neither COX inhibitor alone stimulated IFN-γ secretion.
Inhibition of PGE2 synthesis plays an important role in enhancing IFN-γ secretion. The blockade of the COX enzyme will inhibit synthesis of multiple PG (e.g., PGE2, PGD2 and dPGJ2), all of which potentially can inhibit Th1 immune responses. To assess the role of PGE2 in the modulation of IFN-γ secretion elicited by CpG ODN, a neutralizing antibody (2B5) specific for PGE2 was added into CpG DNA-stimulated spleen cell-cultures. […] The enhancement was similar in magnitude to that observed when COX inhibitors were added to the cultures (Table 3).

For the next data set, the system named is YAC-1 target cells. The data set is described as follows: NK cytotoxicity assay, 4-h 51Cr-release against YAC-1 target cells. The data set is classed as cell-based, mouse. The note with it: for NK activity, Mouse Spleen Cells (LU/10^6): B cell-depleted C57BL/6 spleen cells, 18 h, IL-2 100 U/mL, ODN 1585 5 μg/mL, SC-58236 0.25 μg/mL, PGE2 0.1 μg/mL, 1 LU = 30% 51Cr release; for effect on NK lytic activity induced by CpG DNA: B cell-depleted murine spleen cells stimulated with ODN 1585. The protocol:
Cytotoxicity assay. Spleen cells from C57BL/6 mice were depleted of B cells using paramagnetic beads coated with goat anti-mouse Ig as previously described. Ballas Z K et al. (1990) J Immunol 145:1039-45; Ballas Z K et al. (1993) J Immunol 150:17-30. […] […] Cultures were harvested at 18 h and the cells were used as effectors in a standard 4-h ^51Cr-release assay against YAC-1 target cells labeled with Na^51CrO4 (Amersham Life Science, Arlington Heights, Ill.) as described previously. Ballas Z K et al. (1990) J Immunol 145:1039-45; Ballas Z K et al. (1993) J Immunol 150:17-30; Ballas Z K et al. (1990) J Allergy Clin Immunol 85:453-39. One lytic unit (LU) was defined as the number of the cells needed to exert 30% specific lysis.
It has previously been reported that certain CpG DNA sequences can elicit strong lytic activity in NK cells (Ballas Z K et al. (1996) J Immunol 157:1840-45), whereas exogenous PGE2 is known to inhibit the activity of NK cell killing (Kanar M C et al. (1988) J Clin Immunol 8:69-79; Young M R et al. (1986) J Natl Cancer Inst 77:425-29). B cell-depleted murine spleen cells were stimulated with the stimulatory ODN 1585 in the presence or absence of a COX inhibitor.

The next data set deals with COX-2 protein. The data set is described as follows: Western blotting of COX-2 protein in RAW 264.7 cells. The data set is classed as cell-based, murine. The protocol:
Western blotting. Protein was isolated from cultured cells by resuspending in lysis buffer [50 mM Tris (hydroxymethyl) aminomethane, pH 7.5, 150 mM NaCl, 100 μg/ml PMSF, 1 μg/ml aprotinin, 1 μg/ml leupeptin, 1 mM diethyldithiocarbamic acid, 1% NP-40 and 1% sodium deoxycholate]. Cells were lysed by sonication (20 s, 4° C.). Debris was eliminated by centrifugation (15 min, 1000 g). Protein concentration was measured using a commercial reagent based on BCA staining (Pierce, Rockford, Ill.), using BSA as an internal standard. Equal amounts of cellular protein were loaded onto a 10% polyacrylamide gel and separated by electrophoresis (200 V for 45 min). Proteins were then transferred to nitrocellulose (100 V for 1 h) and the membrane was blocked with 5% non-fat dry milk. The nitrocellulose was then incubated with a rabbit polyclonal primary antibody (anti-COX-2, 1:1000, Cayman; anti-COX-1, 1:1000, Santa Cruz) overnight at 4° C. Antibody labeling was detected using enhanced chemiluminescence (ECL; Amersham) as per the manufacturer's instructions. Specificity of the anti-cyclooxygenase antibody was confirmed with the use of ram seminal vesicle PGHS-1 (COX-1, Oxford Biomedical Research, Oxford, Mich.) and sheep placenta PGHS-2 (COX-2, Cayman).
Films and photographs of RPA or Western blots were scanned in at 6000 DPI using an Epson Expression 1600 scanner. […]

A further data set deals with COX-2 mRNA. The data set is described as follows: RNase protection assay for COX-2 mRNA in RAW 264.7 macrophages. In kind it is cell-based, murine. To be noted: ODN 3 μg/ml; for increase in COX-2 mRNA: 0-24 h. The protocol: RNase protection assay. A murine COX-2 cDNA fragment (nucleotides 205-505; GenBank accession no. M88242) was synthesized by RT-PCR using mouse brain RNA as a template and cloned into pGEM-4. Fragments of the RPL32-4A gene were also cloned into pGEM-4. Dudov K P et al. (1984) Cell 37:457-68. L32 served as an internal loading control. RNase protection assay (RPA) for the detection of COX-2 was performed as previously described. Stadler A et al. (1998) In: Neurodegeneration Methods and Protocols, Harry J and Tilson H A, eds., Humana Press, Totowa, N.J., p. 53. Briefly, for the synthesis of a ^32P-radiolabeled anti-sense RNA probe, equimolar mixtures of the linearized COX-2 and L32 templates were used. Hybridization reactions were performed overnight at 56° C. Following RNase digestion, the RNA duplexes were isolated by electrophoresis in a standard 7.5% acrylamide/12 M urea/0.5% TBE sequencing gel. Dried gels were placed on BMR filmhand were exposed at −70° C.
Films and photographs of RPA or Western blots were scanned in at 6000 DPI using an Epson Expression 1600 scanner. Densitometric analysis was performed using Vtrace (developed at the University of Iowa Image Analysis Facility) operating on a SGI O2 Workstation. Average and integrated OD measurements were made on user-selected regions. A Kodak photographic step tablet was used to calibrate optical density.
Immunostimulatory ODN induce COX-2 mRNA. RAW 264.7 macrophages were incubated with media or ODN (3 μg/ml) for varying time periods (0, 2, 4, 6 and 24 h) and RNA isolated for COX-2 expression using RPA.

The test system of the next data set is BALB/c mice. In words: Serum IFN-γ in vivo after COX inhibitor and ODN 1826 injection. Also on record: species or system mouse. To be noted: SC-58236 20 mg/kg i.p. 1 h before 30 μg ODN 1826, serum 5 h post ODN, FIG. 3. The protocol:
In vivo experiments. BALB/c mice were injected i.p. with 0.2 ml of diluent or SC-58236 (20 mg/kg). One hour later, mice were injected with 30 μg of ODN 1826 or PBS. Five hours later, the mice were anaesthetized with Avertin (Aldrich, Milwaukee, Wis.) and blood was obtained from the retro-orbital plexus. The blood was allowed to clot on ice for 1 h and centrifuged at 10,000 r.p.m. for 10 min. The serum was used for IFN-γ determination by ELISA (as described above).
COX inhibitors augment IFN-γ production in vivo. To determine whether COX inhibitors could also enhance the immune stimulatory effects of CpG-DNA in vivo, mice were treated with COX inhibitors (piroxicam or SC-58236) and subsequently injected with stimulatory ODN 1826. Serum IFN-γ levels were quantified 5 h post ODN injection.

Take `CCCCC[C@H](O)/C=C/[C@H]1[C@H](O)CC(=O)[C@@H]1C/C=C\CCCC(=O)O` [PGE2, prostaglandin E2]: the “IFN-γ” value in data set [1] is on record as 0 ± 4 pg/mL. For the same molecule, in the data set on YAC-1 target cells, the “NK activity, Mouse Spleen Cells (LU/10^6)” value (shortened to “NK activity”) was 0.0 LU/10^6 and the “effect on NK lytic activity induced by CpG DNA” value is listed as “abolished the lytic activity”.
With “ODN 1982: non-stimulatory control ODN (dT*dC*dC*dA*dG*dG*dA*dC*dT*dT*dC*dT*dC*dT*dC*dA*dG*dG*dT*dT)”, the “COX-2 protein induction” value with COX-2 protein is reported as “no induction”. In addition, the “increase in COX-2 mRNA” value in the data set on COX-2 mRNA was “no significant increase”.
`NS(=O)(=O)c1ccc(-n2nc(C(F)(F)F)cc2-c2ccc(Cl)cc2)cc1` [SC-58236]: the “increase in serum IFN-γ above mice injected with ODN 1826 alone” value with BALB/c mice is 4.6 fold. Also, the “IFN-γ” value in data set [1] worked out at 0 ± 2 pg/mL. Also, the “enhancement of IFN-γ secretion from CpG DNA-stimulated spleen cells” value in data set [1] (inhibitor added to CpG DNA-stimulated murine spleen cells) is recorded as 2 fold. Moreover, in the data set on YAC-1 target cells, the “NK activity” value is listed as 0.0 LU/10^6 and the “effect on NK lytic activity induced by CpG DNA” value is “enhanced the NK activity”.
ODN 1826: in data set [1], the “IFN-γ” value is 1960 ± 247 pg/mL. Also, the “COX-2 protein induction” value with COX-2 protein is given as “marked induction”. Further, in the data set on COX-2 mRNA, the “COX-2 mRNA levels over the 24-h time period” value is “remained elevated”, the “time to induction of COX-2 mRNA expression” value is listed as at most 2 h and the “increase in COX-2 mRNA” value is “effectively increased COX-2 mRNA”. Moreover, the “COX-2 mRNA, 6 h level fold greater than 0 h” value in the data set with COX-2 mRNA (6 h) was 21 fold.
Consider “ggGGTCAACGTTGAgggggG (dG*dG*dGdGdTdCdAdAdCdGdTdTdGdAdG*dG*dG*dG*dG*dG) [ODN 1585, immunostimulatory CpG ODN]”, for which the “NK activity” value in the data set on YAC-1 target cells is given as 7.3 LU/10^6.
